Results: PubChem BioAssay (NCI)
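GI50 marks 50% less growth. The concentration for full growth arrest is given as TGI.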

What was measured:
Experiment in all cases: NCI anticancer screen, dose series, 384-well format
RXF 393 renal = test system: RXF 393 renal
MALME-3M melanoma = test system: MALME-3M melanoma
K-562 leukemia = test system: K-562 leukemia
SF-295 CNS = test system: SF-295 CNS
DU-145 prostate = test system: DU-145 prostate
SNB-75 CNS = test system: SNB-75 CNS
ACHN renal = test system: ACHN renal
RPMI-8226 leukemia = test system: RPMI-8226 leukemia
SN12C renal = test system: SN12C renal
OVCAR-5 ovarian = test system: OVCAR-5 ovarian
SK-MEL-2 melanoma = test system: SK-MEL-2 melanoma
HOP-62 NSCLC = test system: HOP-62 NSCLC
SR leukemia = test system: SR leukemia

SMILES: CS(=O)(=O)c1ccc(C(=O)Nc2ccc(Cl)c(-c3ccccn3)c2)c(Cl)c1
- GI50 (RXF 393 renal): 22.7 µM
- TGI (RXF 393 renal): 51.9 µM
- GI50 (MALME-3M melanoma): 19 µM
- TGI (MALME-3M melanoma): 61.2 µM
- GI50 (K-562 leukemia): 16.3 µM
- TGI (K-562 leukemia): 31.1 µM
- GI50 (SF-295 CNS): 33 µM
- TGI (SF-295 CNS): > 67.7 µM
- GI50 (DU-145 prostate): 42.5 µM
- TGI (DU-145 prostate): > 86.8 µM
- GI50 (SNB-75 CNS): 32.3 µM
- TGI (SNB-75 CNS): 80.3 µM
- GI50 (ACHN renal): 35.6 µM
- TGI (ACHN renal): > 81.7 µM
- GI50 (RPMI-8226 leukemia): 25 µM
- TGI (RPMI-8226 leukemia): 61.5 µM
- GI50 (SN12C renal): > 68.8 µM
- TGI (SN12C renal): > 100 µM
- GI50 (OVCAR-5 ovarian): 54.2 µM
- TGI (OVCAR-5 ovarian): > 100 µM
- GI50 (SK-MEL-2 melanoma): 33.8 µM
- TGI (SK-MEL-2 melanoma): > 100 µM
- GI50 (HOP-62 NSCLC): 61.9 µM
- TGI (HOP-62 NSCLC): > 100 µM
- GI50 (SR leukemia): 29 µM
- TGI (SR leukemia): 50.6 µM
